PubChem BioAssay (NCI)
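Exposure lasted 48 hours, with cells grown in 96-well plates and compounds tested at five concentrations. TGI denotes the concentration required for complete inhibition of growth.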

What was measured:
Assay in all cases: NCI-60 cell line screen, 48 h
[1] = tested on: ACHN renal
[2] = tested on: CAKI-1 renal
[3] = tested on: COLO 205 colon
[4] = tested on: HCC-2998 colon
[5] = tested on: MDA-MB-231 breast
[6] = tested on: MOLT-4 leukemia
[7] = tested on: NCI-H226 lung
[8] = tested on: NCI-H23 lung
[9] = tested on: OVCAR-5 ovarian
[10] = tested on: SW-620 colon
[11] = tested on: T-47D breast
[12] = tested on: TK-10 renal
[13] = tested on: UACC-62 melanoma
[14] = tested on: UO-31 renal

Compound | TGI [1] | TGI [2] | TGI [3] | TGI [4] | TGI [5] | TGI [6] | TGI [7] | TGI [8] | TGI [9] | TGI [10] | TGI [11] | TGI [12] | TGI [13] | TGI [14]
Fc1cc(-c2cc(-c3ccccc3)no2)c(Cl)cc1Cl | > 59.6 µM | > 100 µM | > 16.2 µM | > 72 µM | 32.8 µM | > 47.8 µM | > 23.3 µM | > 34.2 µM | > 42.9 µM | > 63.3 µM | > 57.7 µM | > 51.7 µM | > 100 µM | > 59.3 µM
CC(C)=CC[C@]12CCN[C@H]1N(S(=O)(=O)c1ccccc1)c1ccccc12 | 50.7 µM | 69.4 µM | 41 µM | 32.1 µM | 58.5 µM | 75.8 µM | 36.7 µM | > 100 µM | > 100 µM | 36.9 µM | 92.9 µM | > 100 µM | 29.2 µM | 33.3 µM
O=C(Oc1ccccn1)c1cc2cc(CCl)ccc2oc1=O | > 100 µM | 77.3 µM | > 100 µM | > 100 µM | 46.6 µM | > 100 µM | > 100 µM | 62.7 µM | > 100 µM | > 100 µM | > 100 µM | > 100 µM | 85.6 µM | > 100 µM
O=c1[nH]nc(Cc2ccccc2)n1/N=C/c1ccccc1O | > 100 µM | > 100 µM | > 100 µM | > 100 µM | > 100 µM | > 100 µM | > 100 µM | > 100 µM | > 100 µM | > 100 µM | > 100 µM | > 100 µM | > 100 µM | > 100 µM
CC(CO)(CO)N1C(=O)C2C3C=CC(C3)C2C1=O (stereo not given) | > 100 µM | > 100 µM | > 100 µM | > 100 µM | > 100 µM | > 100 µM | > 100 µM | > 100 µM | > 100 µM | > 100 µM | > 100 µM | > 100 µM | > 100 µM | > 100 µM
Cc1ccnc2[nH]c3ccccc3c(=O)c12 | > 100 µM | 38.5 µM | 59.1 µM | 65 µM | > 100 µM | 55.1 µM | > 100 µM | 90.6 µM | > 100 µM | > 100 µM | > 100 µM | 36.3 µM | 40 µM | > 100 µM
CC1OC(OC2C(O)COC(OC3C(C)OC(OC4C(OC(=O)[C@]56CCC(C)(C)C[C@@H]5C5=CCC7[C@@]8(C)C[C@H](O)[C@H](OC9OC(CO)C(O)C(O)C9O)[C@@](C)(CO)[C@@H]8CC[C@@]7(C)[C@]5(C)CC6)OCC(O)C4O)C(O)C3OC3OCC(O)(CO)C3O)C2O)C(O)C(O)C1O (stereo not given in full) | 34 µM | 13.8 µM | 6.37 µM | 14.7 µM | 30 µM | 46.5 µM | 43 µM | 27.1 µM | 24.3 µM | 31.6 µM | 51.1 µM | 32.1 µM | 31.6 µM | 14.2 µM
Cc1cc2oc(=N)c(C#N)c(C)c2cc1C | > 100 µM | > 100 µM | > 100 µM | > 100 µM | > 100 µM | 33.2 µM | > 100 µM | > 100 µM | > 100 µM | > 100 µM | > 100 µM | > 100 µM | > 100 µM | > 100 µM
CN(C)CCCC12CCCCC1=Nc1ccccc12 (stereo not given) | > 100 µM | > 100 µM | > 100 µM | > 100 µM | > 100 µM | > 100 µM | > 100 µM | > 100 µM | > 100 µM | > 100 µM | > 100 µM | > 100 µM | > 100 µM | > 100 µM
Cn1cc(NC(=O)Nc2cc(C(=O)Nc3cc(C(=O)Nc4ccc(S(=O)(=O)O)c5cc(S(=O)(=O)O)ccc45)n(C)c3)n(C)c2)cc1C(=O)Nc1cc(C(=O)Nc2ccc(S(=O)(=O)O)c3cc(S(=O)(=O)O)ccc23)n(C)c1 | > 100 µM | – | > 100 µM | > 100 µM | > 100 µM | > 100 µM | > 100 µM | > 100 µM | > 100 µM | > 100 µM | > 100 µM | > 100 µM | > 100 µM | > 100 µM
CCOC(=O)CC[C@H](NC(=O)[C@H](N)Cc1ccc(N(CCCl)CCCl)cc1)C(=O)OCC | > 100 µM | > 37.1 µM | 52.9 µM | > 48.6 µM | > 58.8 µM | 6.85 µM | > 72 µM | 12.9 µM | 65 µM | > 58.8 µM | 38.6 µM | > 100 µM | 15.2 µM | 29.8 µM
CC#CCOC(=O)c1ccccc1OC(C)=O | > 100 µM | > 100 µM | > 100 µM | > 100 µM | > 100 µM | > 100 µM | > 100 µM | > 100 µM | > 100 µM | > 100 µM | > 100 µM | > 100 µM | > 100 µM | > 100 µM
CN=C(N=Nc1c(O)[nH]c2ccccc12)SCC(=O)c1ccc(Br)cc1 | 52.2 µM | > 65.5 µM | > 100 µM | 13.2 µM | 19.8 µM | > 100 µM | 48.4 µM | 51.1 µM | > 88.8 µM | > 34.1 µM | > 100 µM | 37.7 µM | > 100 µM | 3.79 µM
N#CCCN(C(=O)Nc1ccccc1)[C@H]1CCCC[C@@H]1N(C(=O)Nc1ccccc1)c1ccccc1 | > 100 µM | > 100 µM | > 100 µM | > 100 µM | > 100 µM | > 100 µM | > 100 µM | > 100 µM | > 100 µM | > 100 µM | > 100 µM | > 100 µM | > 100 µM | > 100 µM
O=C1CCCC1CN1CCCC1 (stereo not given) | 15 µM | 0.773 µM | 8.74 µM | > 60.4 µM | 31.3 µM | 1.07 µM | > 100 µM | 31.3 µM | 32.4 µM | 11.3 µM | 10.8 µM | 25.1 µM | 32.6 µM | 17.6 µM
Nc1nc(N)c2c3c(cnc2n1)CC(c1ccccc1)CC3 (stereo not given) | 31.7 µM | > 100 µM | > 100 µM | > 100 µM | 96.8 µM | > 100 µM | > 100 µM | – | > 100 µM | > 100 µM | 56.8 µM | 97.9 µM | > 100 µM | –
CSc1ncnc2c1ncn2CCC(=O)OC(C)(C)C | > 100 µM | > 100 µM | > 100 µM | > 100 µM | > 100 µM | > 100 µM | > 100 µM | > 100 µM | > 100 µM | > 100 µM | > 100 µM | > 100 µM | – | > 100 µM
N#Cc1c(N)nc2n[nH]c(N)c2c1-c1ccc(Cl)cc1 | 9.69 µM | 29.3 µM | > 100 µM | > 64.7 µM | 10.4 µM | > 100 µM | > 100 µM | 29.8 µM | > 100 µM | > 100 µM | 4.62 µM | – | 4.23 µM | 19.9 µM
Oc1[nH]c2ccccc2c1N=NC(=S)Nc1cccc(Cl)c1 | 28.8 µM | 44.9 µM | > 100 µM | > 100 µM | 52.3 µM | 10.8 µM | 55.2 µM | 52.3 µM | > 100 µM | 26.8 µM | > 100 µM | 84.8 µM | 29 µM | > 100 µM
COC(=O)C1=C(C(=O)NNc2ccccc2)N(c2cccnc2Cl)C(c2ccccc2)=CC1c1ccccc1 (stereo not given) | > 100 µM | > 100 µM | > 100 µM | > 100 µM | > 100 µM | 67.2 µM | > 100 µM | > 100 µM | > 100 µM | > 100 µM | > 100 µM | > 100 µM | > 100 µM | –
COC(CNC(=O)C(C)NC(=O)/C=C/c1ccccc1)OC (stereo not given) | > 100 µM | > 100 µM | > 100 µM | – | > 100 µM | > 100 µM | > 100 µM | > 100 µM | > 100 µM | > 100 µM | > 100 µM | > 100 µM | > 100 µM | > 100 µM
Nc1ncnc2c1ncn2[C@@H]1C[C@@H]1CO | > 100 µM | – | – | > 100 µM | > 100 µM | > 100 µM | > 100 µM | > 100 µM | > 100 µM | > 100 µM | > 100 µM | – | – | > 100 µM
COc1ccc(P2(=S)OC(C)(C)C(C)(C)O2)cc1 | > 100 µM | > 100 µM | – | – | > 100 µM | > 100 µM | > 100 µM | > 100 µM | > 100 µM | > 100 µM | > 100 µM | > 100 µM | > 100 µM | > 100 µM
O=C(O)C(NCc1ccccc1)C(NCc1ccccc1)C(=O)O (stereo not given) | > 100 µM | > 100 µM | > 100 µM | > 100 µM | > 100 µM | > 100 µM | > 100 µM | > 100 µM | – | > 100 µM | > 100 µM | > 100 µM | > 100 µM | > 100 µM
CC(=O)c1c(C)n([O-])c2cc(Cl)c(Cl)cc2[n+]1=O | 67.7 µM | 58.1 µM | 30.1 µM | 57.8 µM | 62.7 µM | > 100 µM | – | > 100 µM | > 100 µM | > 100 µM | > 100 µM | 71.3 µM | 50 µM | 32.9 µM
